Counter-ions that a name gives are not always drawn.

These results are taken from US7838528B2, “Substituted bicyclic 8-pyrrolidinoxanthines, methods for their production, pharmaceutical formulations and their use” (sanofi-aventis Deutschland GmbH, priority 2004, dated 2010).

The target in the test is T1, DPP-IV from porcine kidney (Sus scrofa, UniProt P22411).
T1 construct: DPP-IV from porcine kidney (Sigma Chemical GmbH, Munich DE); purchased Sigma Chemical GmbH, Munich DE; host or cells: porcine kidney (tissue-derived enzyme)
T1 sequence (P22411 whole entry): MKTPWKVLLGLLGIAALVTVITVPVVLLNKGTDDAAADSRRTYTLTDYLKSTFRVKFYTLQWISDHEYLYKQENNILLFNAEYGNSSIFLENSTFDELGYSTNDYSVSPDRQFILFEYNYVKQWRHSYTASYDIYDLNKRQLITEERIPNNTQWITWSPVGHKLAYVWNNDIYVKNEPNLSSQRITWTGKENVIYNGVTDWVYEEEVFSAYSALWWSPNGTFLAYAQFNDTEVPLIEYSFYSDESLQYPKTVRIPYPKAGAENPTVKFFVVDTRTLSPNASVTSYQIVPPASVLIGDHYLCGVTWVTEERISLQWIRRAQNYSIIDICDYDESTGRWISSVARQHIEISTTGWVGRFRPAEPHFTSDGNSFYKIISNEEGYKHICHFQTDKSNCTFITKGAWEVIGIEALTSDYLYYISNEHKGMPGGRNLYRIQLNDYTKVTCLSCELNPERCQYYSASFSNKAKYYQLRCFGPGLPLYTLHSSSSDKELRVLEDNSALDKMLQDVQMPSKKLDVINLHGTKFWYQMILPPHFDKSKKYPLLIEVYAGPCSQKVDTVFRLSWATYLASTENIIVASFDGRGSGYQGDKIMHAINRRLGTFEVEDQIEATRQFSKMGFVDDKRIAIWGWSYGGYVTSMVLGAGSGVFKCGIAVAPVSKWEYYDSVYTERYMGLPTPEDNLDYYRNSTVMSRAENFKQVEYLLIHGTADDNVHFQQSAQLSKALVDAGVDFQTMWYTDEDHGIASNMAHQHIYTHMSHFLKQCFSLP
The test can be described thus: Measurement of the DPP-IV activity (H-Ala-Pro-AFC fluorimetric assay). Format: biochemical. Particulars: H-Ala-Pro-AFC 15 μM, DPP-IV 1 mU/ml, Tris/HCl pH 7.4, room temperature. The protocol: Measurement of the DPP-IV Activity: […]
a) DPP-IV from porcine kidney (Sigma Chemical GmbH, Munich DE) b) H-Ala-Pro-AFC (Bache Chemical Co., Weil am Rheine DE) […]
c) DPP-IV (1 mU/ml, final concentration) d) H-Ala-Pro-AFC (15 μM, final concentration) • in Tris/HCl (40 mM, pH 7.4), total volume 0.2 ml The reaction was carried out at room temperature at different reaction times (typically 10 min) and stopped at the end of the reaction by adding 20 μl of ZnCl2 (1 M). The H-Ala-Pro-AFC conversion was determined fluorimetrically by measuring the emission at 535 nm after excitation at 405 nm. When inhibitors were added, the added buffer volume was adapted so that a total volume of 200 μl was maintained for the assay mixture.
IC50 values for inhibitors were determined by varying the inhibitor concentrations with the stated substrate concentration of 15 μM. Ki and Km values were found by appropriate variation of substrate concentration and inhibitor concentration as described (Dixon, M. and Webb, E. C. (1979) Enzymes, third edition, pp. 47-206, Academic Press) which is herein incorporated by reference. The values for Km, IC50 and Ki were calculated using a commercially available software package (Leatherbarrow, R. J. (1992) GraFit Version 3.0, Erithacus Software Ltd. Staines, U.K.).
Consider `CC(C)=CCn1c(N2CC[C@@H]3NCC[C@@H]32)nc2c1c(=O)n(CC(=O)c1ccccc1)c(=O)n2C` (relative stereo) [Example 1, 8-(cis-Hexahydro-pyrrolo[3,2-b]pyrrol-1-yl)-3-methyl-7-(3-methyl-but-2-enyl)-1-(2-oxo-2-phenyl-ethyl)-3,7-dihydropurine-2,6-dione hydrochloride], for which the IC50 – broadly, the concentration needed to halve the response being measured – was 34 nM.

`CC(C)=CCn1c(N2CC[C@@H]3NCC[C@@H]32)nc2c1c(=O)n(CC(=O)c1ccccc1)c(=O)n2C` (single isomer, unassigned) [Example 1a, 8-(cis-Hexahydro-pyrrolo[3,2-b]pyrrol-1-yl)-3-methyl-7-(3-methyl-but-2-enyl)-1-(2-oxo-2-phenyl-ethyl)-3,7-dihydro-purine-2,6-dione] yielded a 50% inhibitory concentration (IC50) of 160 nM.

The compound `CC(C)=CCn1c(N2CC[C@@H]3NCC[C@@H]32)nc2c1c(=O)n(CC(=O)c1ccccc1)c(=O)n2C` (single isomer, unassigned) [Example 1b, 8-(cis-Hexahydro-pyrrolo[3,2-b]pyrrol-1-yl)-3-methyl-7-(3-methyl-but-2-enyl)-1-(2-oxo-2-phenyl-ethyl)-3,7-dihydro-purine-2,6-dione] had an IC50 of 18 nM. This IC50 lies about 8.9-fold lower than the previous one.
